Results published in patent US20230226259A1, “NANOFIBER CARDIAC PATCH AND METHODS OF USE THEREOF” (Ohio State Innovation Foundation, priority 2020, published 2023).

Assays:
COVID-19 patients = conditions: cited from earlier work
fertilized chicken eggs = assay: In ovo CAM assay; assay type: in vivo; conditions: in Geltrex carrier, 5 days
Experimental: The angiogenic potential of bFGF loaded PDA-NPs and DPDA-NPs was evaluated by using fertilized chicken eggs. The eggs were incubated in a hatching incubator for 5 days, following the incubation the viable eggs were selected and grouped as follows (bFGF+Geltrex, bFGF-PDA-NPs+Geltrex, bFGF-DPDA-NPs+Geltrex and only Geltrex). A window was made on the eggshell and a sterilized nylon mesh was placed inside the egg. The test samples were loaded on the nylon mesh and the window was covered by placing a 35 mm plate and secured by using tape. The eggs were further incubated for 5 days, following which it was carefully dissected to retrieve the nylon mesh and imaged using a stereomicroscope (Leica).

hiPSC-CMs = assay: Multi-electrode array (MEA) field potentials of hiPSC-CMs cultured in 2-D or on aligned coaxial patches (3-D) after cardiac drugs; assay type: cell-based, human; conditions: for beating frequency (beats per minute): change after treatment
[1] = tested on: hiPSC-CMs cultured on aligned coaxial patches; assay: Particle image velocimetry (PIV) optical contractility of aligned coaxial cardiac patch; assay type: cell-based, human; conditions: 100 nM, patches at two weeks of culture
Experimental: Cross-correlation (“PIV”) analysis of images. Cell contractility kinetics were assessed using the optical flow/PIV method. Briefly, a motion pattern (velocity field) captured on a pair of images was calculated by dividing the first image into overlapping tiles, each 64 pixels wide. The second image was then scanned pixel-by-pixel, by shifting an equally sized (64×64 pixels) window. The most similar (by Euclidean distance) tile on the second image was then assumed to be the location where the pattern in the first image moved. The resulting displacement vectors characterizing each image tile were then interpolated and denoised by a thin-plate spline fit, yielding a coarse displacement field. The coarse estimate was used to construct a second, higher resolution displacement field. […] Fourier spectra were calculated from D(t) beat patterns using the discrete Fourier transform algorithm. Power densities were calculated as the magnitudes of the squared Fourier spectra, and indicate periodicity within the signal in the form of peaks at the corresponding frequencies. When the analyzed signal is not a pure sine wave, harmonics are expected to appear at integer multiples of the fundamental frequency f(2f, 3f, etc). […]

Q: Which results are given for `CCN(CCO)CCCC(C)Nc1ccnc2cc(Cl)ccc12` (stereo not shown) [HCQ, hydroxychloroquine]?
A: cell death (hiCMs): increased; cell viability (hiCMs): decreased; electrophysiological function (MEA and patch clamp) (hiCMs): considerable changes; QT interval (COVID-19 patients; COVID-19 / SARS-CoV-2 patients): QT prolongation; association between treatment and consequent intubation or death (COVID-19 patients; New York study (Geleris et al)): no significant association; recovery of patients (COVID-19 patients; randomized clinical trial, administration for 5 days): improved recovery

Q: With bFGF: basic fibroblast growth factor as the compound, how does the “new blood vessel formation on nylon mesh” value (fertilized chicken eggs) read?
A: Its value is “remarkable angiogenesis”.

Q: For `CC(C)NCC(O)c1ccc(O)c(O)c1` (stereo not shown) [ISO, Isoproterenol], which beat period (hiPSC-CMs; 2-D culture, 10 nM ISO) is on record?
A: Its beat period is 0.67 ± 0.04 s.

Q: What about the beat period (hiPSC-CMs; 2-D culture, 100 nM ISO) of the same compound?
A: Its beat period is 0.66 ± 0.03 s.

Q: What about the beat period (hiPSC-CMs; 3-D culture (aligned coaxial patch), 10 nM ISO) of the same compound?
A: Its beat period is 0.8 ± 0.15 s.

Q: What about the beat period (hiPSC-CMs; 3-D culture (aligned coaxial patch), 100 nM ISO) of the same compound?
A: Its beat period is 0.66 ± 0.1 s.

Q: What about the “Fridericia-corrected field potential duration (FPDc), change vs baseline” value (hiPSC-CMs; both 2-D and 3-D cultures) of the same compound?
A: Its value is “dose-dependent shortening of the QT interval”.

Q: What about the “beat period, change vs baseline” value (hiPSC-CMs; both 2-D and 3-D cultures) of the same compound?
A: The value was “significant dose-dependent decrease”.

Q: What about the “beating frequency (beats per minute)” value (hiPSC-CMs; both 2-D and 3-D cultures) of the same compound?
A: The value was “increase”.

Q: What about the “spontaneous beat amplitude (beat patterns)” value [1] of the same compound?
A: The value was “increase”.

Q: What about the “average frequency of spontaneous beating” value ([1]; mean +- SEM, untreated 0.136 Hz) of the same compound?
A: The value was 1.497+−0.0394 Hz.

Q: Which “FPDc, change with dose” value (hiPSC-CMs; 3-D culture only, 0.1 μM and 0.3 μM) does the source give for `COc1ccc(CCN(C)CCCC(C#N)(c2ccc(OC)c(OC)c2)C(C)C)cc1OC` (stereo not shown) [Verapamil] here?
A: The value was “dose-dependent decrease”.

Q: What about the “beat period, change vs baseline” value (hiPSC-CMs; both 2-D and 3-D cultures) of the same compound?
A: Its value is “significant fold decrease”.

Q: And the “beating frequency (beats per minute)” value (hiPSC-CMs; both 2-D and 3-D cultures)?
A: The value was “increase”.
